{
  "source": "paper PMC13114161",
  "about": "(Antibiotics, 2026)",
  "key": {"P. aeruginosa AR-0232": {"system": "P. aeruginosa AR-0232", "assay": "Time-kill study", "assay_type": "cell-based, Pseudomonas aeruginosa", "settings": "levofloxacin 1X-MIC + TXA11114, by 24 h", "procedure": "(§1) Time-kill studies were carried out as described previously with the following changes."}, "P. aeruginosa ATCC 27853 [1]": {"system": "P. aeruginosa ATCC 27853", "assay": "Time-kill study", "assay_type": "cell-based, Pseudomonas aeruginosa", "settings": "levofloxacin 1X-MIC + TXA11114", "procedure": "as §1"}, "P. aeruginosa ATCC 27853 [2]": {"system": "P. aeruginosa ATCC 27853", "assay": "Intracellular ATP levels", "assay_type": "cell-based, Pseudomonas aeruginosa", "settings": "three hours post-treatment", "procedure": "Further, a deviation from normal membrane function can affect the activity of respiratory components and diminish ATP synthesis. Thus, an indirect approach to assess a drug’s membrane effect is by monitoring cellular ATP levels after treatment. To exclude ATP depletion as a TXA11114 MoA, bacterial ATP levels were evaluated three hours post-treatment. […] Azithromycin was used as a negative control.\nP. aeruginosa intracellular ATP levels were determined as described previously using an ATP determination kit (Invitrogen, Life Technologies, Carlsbad, CA, USA). Bacterial culture strain ATCC 27853 was grown to the mid-log phase (OD600 = 0.7), washed, and resuspended in the same volume of PBSM (1X PBS, 1mM MgCl2). […] After treatment, the cells were lysed in chloroform which was subsequently removed by boiling at 80 °C. The persistent ATP from cell lysate was measured in a 96-well black flat-bottom plate by measuring the luminescence. Luminescence was converted to concentration from standard curve. […] Error bars represent the standard deviation of triplicates."}, "CYP3A4": {"molecular_target": "T1, CYP3A4 (Homo sapiens, UniProt P08684)", "T1 construct": "from tissue; host or cells: human liver microsomes", "T1 sequence (P08684 whole entry)": "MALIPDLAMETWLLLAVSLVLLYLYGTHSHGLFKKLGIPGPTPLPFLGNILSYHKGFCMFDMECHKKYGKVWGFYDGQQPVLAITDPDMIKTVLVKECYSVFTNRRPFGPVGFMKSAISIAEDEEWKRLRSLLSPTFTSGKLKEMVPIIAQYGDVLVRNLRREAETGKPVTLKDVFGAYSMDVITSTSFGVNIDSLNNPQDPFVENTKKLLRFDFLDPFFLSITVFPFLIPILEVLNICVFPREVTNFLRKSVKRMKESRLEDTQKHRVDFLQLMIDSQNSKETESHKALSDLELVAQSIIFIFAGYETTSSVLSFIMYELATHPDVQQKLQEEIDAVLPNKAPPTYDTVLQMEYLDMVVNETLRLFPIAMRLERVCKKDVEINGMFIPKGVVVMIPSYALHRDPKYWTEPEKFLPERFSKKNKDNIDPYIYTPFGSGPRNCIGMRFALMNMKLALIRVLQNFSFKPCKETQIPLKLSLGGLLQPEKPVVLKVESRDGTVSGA", "assay": "Cytochrome P450 inhibition", "assay_type": "in vitro ADME", "settings": "human liver microsomes; read-out: CYP Inhibition IC50, 3A4", "procedure": "(§2) Inhibition of CYP1A2, CYP2D6, CYP2C9, CYP2C19, and CYP3A4 by TXA11114 was assessed in human liver microsomes by measuring the inhibition of probe substrate metabolism. Phenacetin, bufuralol, diclofenac, S-mephenytoin, and midazolam were used as probe substrates for CYP1A2, CYP2D6, CYP2C9, CYP2C19, and CYP3A4, respectively. Corresponding metabolites (acetaminophen, OH-bufuralol, 4-OH diclofenac, 4-OH mephenytoin, and 1-OH midazolam) were quantified by LC-MS/MS. Selective inhibitors (fluvoxamine (CYP1A2), quinidine (CYP2D6), sulfaphenazole (CYP2C9), ticlopidine (CYP2C19), and ketoconazole (CYP3A4)) were used as positive controls. Test and control compounds, prepared in DMSO at various concentrations, were spiked into 2× microsomal reaction mixtures, and 50 µL aliquots were transferred to individual wells. Probe substrates (25 µL, 4× concentration) were added to the respective wells and pre-incubated for 5 min at 37 °C. Reactions were initiated by the addition of 25 µL NADPH (4×) and incubated for 5 min (CYP3A4), 10 min (CYP1A2, CYP2D6, CYP2C9), or 20 min (CYP2C19). Reactions were quenched with 100 µL ice-cold acetonitrile containing glipizide as an internal standard. Plates were centrifuged at 4000 rpm for 15 min, and 100 µL supernatants were analyzed by LC-MS/MS in MRM mode. […] Percent inhibition was calculated as 100 − percent activity. IC50 values were determined using GraphPad Prism (version 5.02)."}, "CYP2D6": {"molecular_target": "T2, CYP2D6 (Homo sapiens, UniProt P10635)", "T2 construct": "from tissue; host or cells: human liver microsomes", "T2 sequence (P10635 whole entry)": "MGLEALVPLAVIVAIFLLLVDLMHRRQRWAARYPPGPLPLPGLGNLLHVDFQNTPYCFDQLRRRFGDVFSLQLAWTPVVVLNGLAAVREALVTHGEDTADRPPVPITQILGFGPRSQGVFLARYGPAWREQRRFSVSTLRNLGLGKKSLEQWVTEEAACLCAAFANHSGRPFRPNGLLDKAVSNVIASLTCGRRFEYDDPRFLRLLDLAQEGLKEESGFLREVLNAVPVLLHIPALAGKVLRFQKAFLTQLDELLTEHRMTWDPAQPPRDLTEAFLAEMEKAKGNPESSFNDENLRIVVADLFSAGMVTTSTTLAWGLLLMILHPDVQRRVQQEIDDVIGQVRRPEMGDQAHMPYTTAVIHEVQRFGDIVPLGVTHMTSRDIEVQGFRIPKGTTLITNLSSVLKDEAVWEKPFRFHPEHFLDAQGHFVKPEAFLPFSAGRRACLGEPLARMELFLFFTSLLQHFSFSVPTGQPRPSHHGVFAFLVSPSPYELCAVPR", "assay": "Cytochrome P450 inhibition", "assay_type": "in vitro ADME", "settings": "human liver microsomes; read-out: CYP Inhibition IC50, 2D6", "procedure": "as §2"}, "[3]": {"assay": "Initial nephrotoxicity screen (BUN, creatinine)", "assay_type": "in vivo, Sprague Dawley rats", "settings": "male rats, 10 mg/kg IV QD, 24 h after dosing", "procedure": "BUN and CRE analyses were conducted by SRI International (Menlo Park, CA, USA). Adult male Sprague Dawley rats (n = 3 per group) received TXA11114 (10 mg/kg, IV, QD), and blood samples were collected 24 h after dosing."}, "P. aeruginosa ATCC 27853 [4]": {"system": "P. aeruginosa ATCC 27853", "assay": "Membrane polarization assay DiOC2(3)", "assay_type": "cell-based, Pseudomonas aeruginosa", "procedure": "RND efflux pumps require an intact proton motive force across the inner membrane to mediate drug efflux. Accordingly, collapse of the membrane potential could indirectly disable efflux activity and result in apparent antibiotic potentiation. To determine whether TXA11114 dissipates the membrane potential of P. aeruginosa, membrane polarization was assessed using the fluorescent probe 3,3′-diethyloxacarbocyanine iodide (DiOC2(3)). DiOC2(3) accumulates in cells with polarized membranes, undergoing a concentration-dependent shift from green to red fluorescence due to dye stacking; membrane depolarization prevents this shift. […] CCCP and azithromycin were included as positive and negative controls, respectively. […] This discrepancy likely reflects a methodological limitation of the DiOC2(3) assay in Gram-negative bacteria. Specifically, EDTA treatment is required to transiently permeabilize the outer membrane to permit DiOC2(3) access to the cytoplasmic membrane (see Methods). While necessary for probe uptake, EDTA can sensitize cells to secondary perturbations and may exaggerate subtle fluorescence changes at supraphysiological compound concentrations.\nP. aeruginosa membrane polarization assays were conducted as described previously using strain ATCC 27853. Briefly, mid-exponential phase (OD600 of 0.5) P. aeruginosa was pelleted by centrifugation at 3000× g for 10 min at room temperature. Cells were then resuspended in 1× PBS, treated with 10 mM EDTA for 5 min and then centrifuged at 300× g for 10 min to remove EDTA. EDTA-treated cells were pelleted and resuspended to an OD600 of 1.0 in assay resuspension buffer. A 6 mM DiOC2(3) stock in DMSO was added to cells for a final concentration of 30 µM. DiOC2(3)-loaded cells were then added to a 96-well black bottom microplate for a final volume of 200 µL. […] After 15 min incubation at 37 °C in dark, DiOC2(3) fluorescence was recorded using the SpectraMax iD5 spectrophotometer (Molecular Devices, San Jose, CA, USA) using 450 nm excitation. Red fluorescence intensity was recorded at 670 nm emission."}, "Plasma stability": {"assay": "Plasma stability", "assay_type": "in vitro ADME", "settings": "read-out: Plasma stability t1/2", "procedure": "Plasma stability was assessed by incubating the compound in plasma at 37 °C and monitoring parent compound disappearance over time by LC-MS/MS. Half-life values were calculated assuming first-order kinetics."}, "P. aeruginosa DA7232": {"system": "P. aeruginosa DA7232", "assay": "Levofloxacin accumulation assay", "assay_type": "cell-based, Pseudomonas aeruginosa", "settings": "vs vehicle-treated controls", "procedure": "The bacterial culture samples were treated on ice for 15 min, centrifuged, washed with PBSMG (1X PBS, 1 mM MgCl2, 100 mM glucose) and then resuspended in 1 mL of glycine-HCl buffer (pH 3.0) overnight for cell lysis, followed by centrifugation. The fluorescence of 100 µL of supernatant was read at 490 nm following a 355 nm excitation in a SpectraMax iD5 spectrophotometer (Molecular Devices, San Jose, CA, USA)."}},
  "note": "Where two headings read alike, the source gives them in different places.",
  "data": [
    {"compound": "NCC(F)C[C@@H](N)CNC(=O)c1cc2ccc(-c3ccc(F)cc3)cc2[nH]1", "note": "(stereo partly drawn) [TXA11114, N-((2R)-2,5-diamino-4-fluoropentyl)-6-(4-fluorophenyl)-1H-indole-2-carboxamide]", "values": [
      {"measurement": "Reduction in time-kill with levofloxacin", "setting": "P. aeruginosa AR-0232", "value": "≥ 3", "unit": "log10"},
      {"measurement": "Reduction in time-kill with levofloxacin", "setting": "P. aeruginosa ATCC 27853 [1]", "value": "more modest but reproducible reductions"},
      {"measurement": "Cellular ATP level", "setting": "P. aeruginosa ATCC 27853 [2]", "value": "did not result in ATP depletion"},
      {"measurement": "IC50", "setting": "CYP3A4", "value": 63, "unit": "µM"},
      {"measurement": "IC50", "setting": "CYP2D6", "value": "> 100", "unit": "µM"},
      {"measurement": "Blood Urea Nitrogen", "setting": "[3]", "value": 15.3, "unit": "mg/dL"},
      {"measurement": "Creatinine", "setting": "[3]", "value": 0.22, "unit": "mg/dL"},
      {"measurement": "Concentrations with modest increase in apparent depolarization", "setting": "P. aeruginosa ATCC 27853 [4]", "value": "> 10", "unit": "µg/mL"},
      {"measurement": "Membrane depolarization", "setting": "P. aeruginosa ATCC 27853 [4]; 0.01–20 µM", "value": "did not induce significant membrane depolarization"},
      {"measurement": "half-life", "setting": "Plasma stability; dog", "value": "> 2", "unit": "h"},
      {"measurement": "half-life", "setting": "Plasma stability; mouse", "value": "> 2", "unit": "h"},
      {"measurement": "half-life", "setting": "Plasma stability; rat", "value": "> 2", "unit": "h"},
      {"measurement": "Intracellular levofloxacin accumulation", "setting": "P. aeruginosa DA7232", "value": "marked increase in intracellular levofloxacin accumulation"}
    ]}
  ]
}
